US8318697B2, “Prophylactic and therapeutic treatment of infectious and other diseases with mono- and disaccharide-based compounds” (Corixa Corporation, priority 2000, dated 2012)

What was measured:
P. carinii = assay: Protection against P. carinii infection in anti-CD4 treated (immunocompromised) mice, lung impression smear score; format: in vivo; set-up: GIEMSA score for presence of P. carinii / SILVER score for presence of P. carinii: scale not given here
Method: Mice were pretreated with L3T4 anti-CD4 antibody for a minimum of 2 weeks (2 injections/week, 0.2 mg/injection) or until the peripheral CD4 count was reduced by at least about 50%.
An aqueous formulation was prepared containing 1 mg/ml 3-O-deacylated monophosphoryl lipid A and 108 μg/ml of the surfactant DPPC in water. The formulation was administered intratracheally via a small cannula at −24 hours and then twice a week for the remainder of the study. The concentrations administered are indicated below in Table 1. One million P. carinii were inoculated trans-tracheally at day 0. Twice-weekly treatments were continued for 7 weeks, lungs were removed and impression smears made. Slides were stained with Giemsa and silver and scored for the presence of P. carinni as follows.

C3H/HEJ splenocytes = assay: Cytokine induction in C3H/HEJ (toll-receptor 4 mutant) mouse splenic cultures; format: cell-based
Method: Lipid A compounds were tested by reconstitution in 0.2% triethanolamine in sterile water for irrigation, incubated at 56° C. and sonicated for 2×10 minutes at 37° C. LPS 055B5 (Sigma-Aldrich; St Louis, Mo.) was diluted into PBS.
BALB/c, DBA/2 and C3H/HEJ mice were purchased from The Jackson Laboratory (Bar Harbor, Me.). Spleens were taken from the mice between 2 PM and 3 PM, and separate single cell suspensions were obtained for each mouse strain. Red blood cells were lysed using Tris-ammonium chloride solution (Sigma-Aldrich), cells were washed and counted using Trypan Blue (Sigma-Aldrich) exclusion. One million splenocytes were cultured per well in 1.0 mL of culture medium. Splenic culture medium (SCM) was designed for 5 day or longer cultures of mouse splenocytes and consisted of RPMI 1640 (Sigma-Aldrich) supplemented to 5% with fetal bovine serum (HyClone; Logan, Utah), 100 ug/mL Gentamicin (Sigma-Aldrich), 250 ng/mL amphothericin (InVitrogen Life Technologies; Carlsbad, Calif.), 1×ITS (bovine insulin 500 ng/mL, human transferring 500 ng/mLg, sodium selenite 250 ng/mL, Sigma), beta-mercaptoethanol 43 nM (Sigma-Aldrich) purivic acid 1 mM (Sigma-Aldrich), HEPES 10 mM (Sigma-Aldrich). Data from these experiments is presented herein as FIG. 8.
BALB/c responses and C3H/HEJ responses were compared for MPL and RC552. […]

human macrophage = assay: Microarray of RNA from stimulated human macrophage; format: cell-based
human whole blood = format: cell-based
[1] = 25 MG/KG intratracheally at -24 hours then twice a week, 7 weeks, Table 1
[2] = 100 MG/KG intratracheally, 7 weeks, Table 1
[3] = 250 MG/KG intratracheally, 7 weeks, Table 1

3-O-deacylated monophosphoryl lipid A [MPL]
GIEMSA score for presence of P. carinii (P. carinii; [1]): 3.4 ± 0.5
SILVER score for presence of P. carinii (P. carinii; [1]): 3.3 ± 0.1
GIEMSA score for presence of P. carinii (P. carinii; [2]): 2.7 ± 0.5
SILVER score for presence of P. carinii (P. carinii; [2]): 3.2 ± 0.1
GIEMSA score for presence of P. carinii (P. carinii; 100 MG/KG, repeated study, Table 2): 1.3 ± 0.3
GIEMSA score for presence of P. carinii (P. carinii; 200 MG/KG, repeated study, Table 2): 1.0 ± 0.3
GIEMSA score for presence of P. carinii (P. carinii; [3]): 1.8 ± 0.8
SILVER score for presence of P. carinii (P. carinii; [3]): 1.6 ± 0.2
nonspecific resistance to infection by Pneumocystis carinii (P. carinii; pulmonary delivery, immunocompromised mice): promotes nonspecific resistance to infection by Pneumocystis carinii
cytokine response (C3H/HEJ splenocytes): Neither MPL nor RC552 induced a cytokine response
early TNF alpha RNA (human macrophage; 1 hour): early (1 hour) TNF alpha RNA for both compounds
6 hour TNF alpha RNA (human macrophage; 6 hour): measurable 6 hour RNA
IL-1β cba2 (human whole blood; donor 1): 1213
IL10/TNFα cba (human whole blood; donor 2, ratio of IL-10 to TNF): 1
TNFα/IL10 cba (human whole blood; donor 2, ratio of TNF to IL-10): 1
